# According to paper PMC4626215, “Esculentin-2CHa-Related Peptides Modulate Islet Cell Function and Improve Glucose Tolerance in Mice with Diet-Induced Obesity and Insulin Resistance” (PLoS ONE, 2015):
# Bridges are numbered along the chain shown (N, C = ends). Where no end group is shown, it is not given here.
# Experiments:
# BRIN-BD11 cells [1] = experiment: Intracellular calcium ([Ca2+]i), FLIPR calcium assay kit; format: cell-based, rat; settings: 1 μM peptide, 5 min; mean ± SEM, n = 8
# Method: (§1) Effects of esculentin-2CHa (1 μM) and its analogues on membrane potential and [Ca^2+]i in BRIN-BD11 cells over a period of 5 min were assessed using commercially available FLIPR membrane or calcium assay kit (Molecular Devices, USA) as previously described. Data were captured using a Flexstation 3 microplate reader equipped with automatic fluid transfer unit (Molecular Devices, USA).
# high fat fed mice [2] = experiment: Longer-term (28 day) in vivo study; design: species or system mouse; Reduction of pancreatic glucagon / Reduction of plasma glucagon / Reduction of total islet area / Reduction of beta cell area / Reduction of alpha cell area: concentration or dose not given beside the values
# Method: (§2) Male National Institutes of Health (NIH) Swiss mice (Harlan Ltd, UK) were housed separately in an air-conditioned room (22 ± 2°C) with relative humidity of 51 ± 5% and a 12-hour light: 12-hour dark cycle and maintained on a high fat diet containing 45% fat, 20% protein and 35% carbohydrate (total energy 19.5 kJ/g, Dietex International Ltd, Witham, UK) for 120 days. Mice maintained on standard rodent diet containing 10% fat, 30% protein and 60% carbohydrates (total energy 12.99 kJ/g) were used as controls. Both groups of animals were allowed food and water ad libitum. All animal experiments were carried out in accordance with the UK Animals (Scientific Procedures) Act 1986 and EU Directive 2010/63EU for animal experiments. The study was approved by University of Ulster Research Ethics Committee.
# High-fat fed mice with clearly manifested features of obesity and hyperglycaemia received twice daily injections of either saline vehicle (0.9% (w/v) (high fat fed controls) or [L28K]esculentin-2CHa (75 nmol/kg body weight) for 28 days. This peptide was chosen based on its potent in vitro and acute in vivo actions. Mice (n = 8) fed standard rodent diet and injected with saline were used as lean controls. Energy intake, bodyweight, non-fasting blood glucose and plasma insulin concentrations were monitored every 72 h throughout the duration of the study. At the end of the 28 day treatment period, glucose tolerance (18 mmol/kg body weight, intraperitoneal or oral, overnight fasted) and insulin sensitivity (25 U/kg body weight) were assessed as previously described. Indirect calorimetry and energy expenditure in treated and control mice were measured using the Comprehensive Laboratory Animal Monitoring System (CLAMS) metabolic chambers (Columbus Instruments, Columbus, OH, USA). Total body lean and fat mass, bone mineral density and bone mineral content were also measured using DXA scanning (Piximus Densitometer, USA). Improvement in beta cell function in [L28K]esculentin-2CHa-treated and control mice were evaluated from the insulin secretory responses of islets isolated from these animals to established insulin secretagogues and incretin hormones (16.7 mM glucose, 1 μM GLP-1, 1 μM GIP, 10 mM alanine, 10 mM arginine and 30 mM KCl). Changes in islet morphology were assessed using pancreatic tissues excised from mice treated with [L28K]esculentin-2CHa or saline for 28 days as previously described.
# (§3) Pancreatic tissues were homogenized in 20 mM Tris-HCl, 150 mM NaCl, 1 mM EDTA, 1 mM EGTA and 0.5% Triton X 100; pH 7.5 as previously described. Blood samples (approximately 150 μl), collected from the cut tip of the tail vein of unanesthetized mice at intervals indicated in the Figures were used for blood glucose measurements and determination of plasma insulin as previously described. Blood glucose was measured using a hand-held Ascencia Contour meter (Bayer Healthcare, UK). Plasma and pancreatic insulin were determined by radioimmunoassay. Plasma and pancreatic glucagon contents were determined by ELISA using commercially available kit (Millipore, MA, USA). Plasma creatinine, alanine transaminase (ALT), aspartic acid transaminase (AST) and alkaline phosphatase (ALP) were measured using commercially available kits (Randox Laboratories, UK) as indicators of renal and liver function. Plasma triglyceride and cholesterol concentrations were measured using an automated clinical chemistry analyser (I-lab 650, and reagents purchased from Instrumentation Laboratory (Warrington, UK). The assay kit for cholesterol was obtained from Randox Laboratories (Antrim, UK). Estimation of LDL cholesterol concentrations was achieved using the Friedewald equation as described previously.
# BRIN-BD11 cells [3] = experiment: Membrane potential, FLIPR membrane assay kit; format: cell-based, rat; settings: 1 μM peptide, 5 min; mean ± SEM, n = 8
# Method: as §1
# BRIN-BD11 cells [4] = settings: 3 μM peptide (highest concentration); mean ± SEM, n = 8
# Method: In vitro insulin-releasing effects of esculentin-2CHa and its analogues were assessed using BRIN-BD11 rat clonal β-cells and mouse islets. In the first set of experiments, BRIN-BD11 cells were incubated with the peptides in the concentration range (1 pM– 3 μM) in Krebs-Ringer bicarbonate buffer containing 5.6 mM glucose for 20 min at 37°C as previously described. Insulin-releasing effects were also assessed using buffer supplemented with 1.4 and 16.7mm glucose concentrations and with established modulators of insulin release as previously described. In a second set of experiments, islets from NIH Swiss mice, isolated by collagenase digestion, were incubated with a range of concentrations of esculentin-2CHa or its analogues (0.1 nM– 1 μM) for 1 h in Krebs-Ringer bicarbonate (KRB) buffer supplemented with 1.4, 5.6 or 16.7 mM glucose. Following test incubations, aliquots of buffer were retrieved and stored at -20°C for measurement of insulin by radioimmunoassay. In the experiments with BRIN-BD11 cells, the release of lactate dehydrogenase (LDH) was measured as an indicator of the integrity of the plasma membrane using commercially available CytoTox 96 non-radioactive cytotoxicity assay kit (Promega, Madison, WI, USA) according to the manufacturer’s recommended protocol.
# [5] = test system: BRIN-BD11 rat clonal β-cells; experiment: In vitro insulin release from BRIN-BD11 cells; format: cell-based; settings: 5.6 mM glucose; for BRIN-BD11 cells (Threshold concentration): minimum concentration producing a significant increase in rate of insulin release, 20 min, 37°C, n = 8
# Method: (§4) In vitro insulin-releasing effects of esculentin-2CHa and its analogues were assessed using BRIN-BD11 rat clonal β-cells and mouse islets. In the first set of experiments, BRIN-BD11 cells were incubated with the peptides in the concentration range (1 pM– 3 μM) in Krebs-Ringer bicarbonate buffer containing 5.6 mM glucose for 20 min at 37°C as previously described [15–17]. Insulin-releasing effects were also assessed using buffer supplemented with 1.4 and 16.7mm glucose concentrations and with established modulators of insulin release as previously described [15–17]. In a second set of experiments, islets from NIH Swiss mice, isolated by collagenase digestion [18, 19], were incubated with a range of concentrations of esculentin-2CHa or its analogues (0.1 nM– 1 μM) for 1 h in Krebs-Ringer bicarbonate (KRB) buffer supplemented with 1.4, 5.6 or 16.7 mM glucose. Following test incubations, aliquots of buffer were retrieved and stored at -20°C for measurement of insulin by radioimmunoassay [20].
# high fat fed mice [6] = experiment: Acute in vivo glucose tolerance and insulin release; design: species or system mouse; settings: for Plasma glucose (AUC) / Plasma insulin (AUC): ip glucose 18 mmol/kg with peptide 75 nmol/kg, AUC 0-60 min, mean ± SEM, n = 8; for Decrease of plasma glucose AUC versus glucose alone / Stimulation of insulin response relative to that with esculentin-2CHa: peptide 75 nmol/kg ip with glucose 18 mmol/kg
# Method: as §2
# For acute in vivo studies, overnight fasted, high fat fed mice (n = 8) received an intraperitoneal injection of glucose alone (18 mmol/kg body weight) or in combination with esculentin-2CHa or its analogues (75 nmol/kg body weight). This peptide dose was selected on the basis of a pilot study that examined acute effects of different doses of esculentin-2CHa on glucose tolerance in lean mice. Blood samples were collected as described previously before injection and at times indicated in the Figures for the measurement of plasma glucose and insulin concentrations.
# as §3
# [7] = test system: islets from NIH Swiss mice; experiment: In vitro insulin release from isolated mouse islets; format: cell-based; settings: 16.7 mM glucose; for Stimulation of insulin release from islets, fold of basal: 1 μM, 1 h; for Mouse islets (Threshold concentration): insulin release, 1 h incubation, n = 8
# Method: as §4
# [8] = 75 nmol/kg twice daily, 28 days
# [9] = after 28 days treatment, ip glucose 18 mmol/kg
# [10] = after 28 days treatment, oral glucose 18 mmol/kg
sequence,measurement,setting,value
"GFSSIFRGVAKFASKGLGKDLAKLGVDKVACKISKQC (disulfide 31-37 (inferred)) [[L28K]Esculentin-2CHa, substituted analogue of esculentin-2CHa chosen for 28 day study]","Intracellular Ca2+ (AUC, x 10^2 RFU)",BRIN-BD11 cells [1],7.28±0.94 x 10^2 RFU
same,Body weight,high fat fed mice [2]; [8],did not affect
same,Food intake,high fat fed mice [2]; [8],did not affect
same,Increase in non-fasting plasma insulin versus saline-treated controls,high fat fed mice [2]; [8],42%
same,Reduction in non-fasting plasma glucose versus saline-treated controls,high fat fed mice [2]; [8],25%
same,Adverse effects,high fat fed mice [2]; 28 days treatment,no adverse effects were observed
same,Decrease in plasma creatinine,high fat fed mice [2]; 28 days treatment,40%
same,Number of islets per mm^2 of pancreas,high fat fed mice [2]; 28 days treatment,did not affect
same,Plasma HDL cholesterol,high fat fed mice [2]; 28 days treatment,no effect
same,Plasma triglycerides,high fat fed mice [2]; 28 days treatment,decreased
same,Reduction of alpha cell area,high fat fed mice [2]; 28 days treatment,48%
same,Reduction of beta cell area,high fat fed mice [2]; 28 days treatment,43%
same,Reduction of total islet area,high fat fed mice [2]; 28 days treatment,44%
same,Total pancreatic insulin content (greater in high fat fed mice),high fat fed mice [2]; 28 days treatment,reversed
same,"O2 consumption, CO2 production, energy expenditure and respiratory exchange ratio","high fat fed mice [2]; 28 days treatment, CLAMS metabolic chambers",not affected
same,Bone area,"high fat fed mice [2]; 28 days treatment, DXA",reversed the loss
same,Reduction of pancreatic glucagon,"high fat fed mice [2]; 28 days treatment, ELISA",20%
same,Reduction of plasma glucagon,"high fat fed mice [2]; 28 days treatment, ELISA",35%
same,Insulin sensitivity,"high fat fed mice [2]; after 28 days treatment, insulin 25 U/kg ip",no significant effect
same,"Improvement of glucose AUC 0–60 min, intraperitoneal glucose tolerance",high fat fed mice [2]; [9],20%
same,"Improvement of insulin AUC 0–60 min, intraperitoneal glucose",high fat fed mice [2]; [9],66%
same,Improvement of glycaemic excursion following oral glucose,high fat fed mice [2]; [10],23%
same,Improvement of insulin response following oral glucose,high fat fed mice [2]; [10],68%
same,Insulin-secretory responses of isolated islets to secretagogues,"high fat fed mice [2]; islets from mice treated 28 days, glucose, GLP-1, GIP, alanine, arginine, KCl",restored
same,"Membrane potential (AUC, x 10^3 RFU)",BRIN-BD11 cells [3],7.78±0.22 x 10^3 RFU
same,LDH release (% of control),BRIN-BD11 cells [4],101.8±1.5 % of control
same,Stimulatory effect on insulin release at 3 μM compared with native peptide,[5],greater
same,BRIN-BD11 cells (Threshold concentration),[5],10 pM
same,Plasma glucose (AUC),high fat fed mice [6],"327.61±36.87 ^, Δ mmol/l.min"
same,Plasma insulin (AUC),high fat fed mice [6],"262.81±30.56 ^,ΔΔΔ ng/ml.min"
same,Decrease of plasma glucose AUC versus glucose alone,high fat fed mice [6],52%
same,Stimulation of insulin response relative to that with esculentin-2CHa,high fat fed mice [6],2.8 fold
same,"Stimulation of insulin release from islets, fold of basal",[7],3.4 fold
same,Mouse islets (Threshold concentration),[7],1 nM
"GFSSIFRGVAKFASKGLGKDLAKLGVDLVAKKISKQC [[C31K]Esculentin-2CHa, substituted analogue of esculentin-2CHa with increased cationicity]","Intracellular Ca2+ (AUC, x 10^2 RFU)",BRIN-BD11 cells [1],6.32±0.72 x 10^2 RFU
same,"Membrane potential (AUC, x 10^3 RFU)",BRIN-BD11 cells [3],7.92±0.14 x 10^3 RFU
same,LDH release (% of control),BRIN-BD11 cells [4],100.2±2.8 % of control
same,Stimulatory effect on insulin release at 3 μM compared with native peptide,[5],greater
same,BRIN-BD11 cells (Threshold concentration),[5],10 pM
same,Plasma glucose (AUC),high fat fed mice [6],410.72 ± 29.25 mmol·min/L
same,Plasma insulin (AUC),high fat fed mice [6],"240.32±31.04 ^,ΔΔΔ ng/ml.min"
same,Decrease of plasma glucose AUC versus glucose alone,high fat fed mice [6],40%
same,Stimulation of insulin response relative to that with esculentin-2CHa,high fat fed mice [6],2.4 fold
same,"Stimulation of insulin release from islets, fold of basal",[7],3.3 fold
same,Mouse islets (Threshold concentration),[7],0.1 nM
